According to article PMC4167698, “Fatty Acid Esters of Phloridzin Induce Apoptosis of Human Liver Cancer Cells through Altered Gene Expression” (PLoS ONE, 2014):

Tests used:
rat hepatocytes (RTCP10) = assay: MTS cell viability assay, rat hepatocytes; type: cell-based; details: 100 µM, 24 h
Procedure: Cell viability was determined by using the MTS assay. In brief, HepG2 cells (5×10^3 cells/100 µL/well), MDA-MB-231 (5×10^3 cells/100 µL/well), THP-1 (25×10^3/100 µL/well), normal human and rat hepatocytes (1×10^4 cells/100 µL/well) were plated in triplicate, in a 96 well sterile flat bottom tissue culture plates. […] Thereby, cells were exposed to various concentrations (0.1, 1, 10, 25, 50, 75, 100 µM) of each treatment. Controls consist of cells with media containing DMSO (<0.5%), test blank wells contained the test compound in media with no cells and blank wells contained media with no cells. After additional 3, 6, 12, 18 or 24 h, 20 µL of the MTS reagent in combination with the electron coupling agent, phenazine methosulfate were added to the wells and cells were incubated in a humidified incubator for 3 h. Absorbance at 490 nm (OD490) was measured by using a Flurostar Optima microplate reader (BMG Labtech, Cary, NC, USA) to obtain the number of viable cells relative to the control population. Percentage of viability of the test compound treated cells are expressed as percentage compared to control (<0.5% DMSO). […] The selective index (SI) of the fatty acid esters of phloridzin is defined as the ratio of cytotoxicity (EC50 values) on normal HP-F cells to solid cancer HepG2, MDA-MB-231 cells (SI = EC50 on HP-F cells/EC50 on solid cancer cells). […]

HepG2 cells [1] = assay: MTS cell proliferation assay, HepG2; type: cell-based, human; details: Homo sapiens, MTS
Procedure: (§1) Cell viability was determined by using the MTS assay. In brief, HepG2 cells (5×10^3 cells/100 µL/well), MDA-MB-231 (5×10^3 cells/100 µL/well), THP-1 (25×10^3/100 µL/well), normal human and rat hepatocytes (1×10^4 cells/100 µL/well) were plated in triplicate, in a 96 well sterile flat bottom tissue culture plates. […] Thereby, cells were exposed to various concentrations (0.1, 1, 10, 25, 50, 75, 100 µM) of each treatment. Controls consist of cells with media containing DMSO (<0.5%), test blank wells contained the test compound in media with no cells and blank wells contained media with no cells. After additional 3, 6, 12, 18 or 24 h, 20 µL of the MTS reagent in combination with the electron coupling agent, phenazine methosulfate were added to the wells and cells were incubated in a humidified incubator for 3 h. Absorbance at 490 nm (OD490) was measured by using a Flurostar Optima microplate reader (BMG Labtech, Cary, NC, USA) to obtain the number of viable cells relative to the control population. Percentage of viability of the test compound treated cells are expressed as percentage compared to control (<0.5% DMSO). […] The selective index (SI) of the fatty acid esters of phloridzin is defined as the ratio of cytotoxicity (EC50 values) on normal HP-F cells to solid cancer HepG2, MDA-MB-231 cells (SI = EC50 on HP-F cells/EC50 on solid cancer cells). Samples with SI values greater than three were considered to have high selectivity towards cancer cells.

[2] = system: normal human hepatocytes (HP-F); assay: MTS cell viability assay, normal human hepatocytes; type: cell-based; details: Hepatocyte, 24 h
Procedure: as §1

HepG2 cells [3] = assay: Morphologic observation under inverted phase contrast microscope; type: cell-based, human; details: HepG2, 100 µM, 24 h
Procedure: After 24 h of treatment, the morphology of HepG2 cells was observed under an inverted phase contrast microscope (Nikon Eclipse E 100, Nikon, Mississauga, ON, Canada) and were captured at 400X magnification using Infinity digital microscopy camera (Lumenera corporation, Ottawa, ON, Canada).

HepG2 cells [4] = assay: DNA fragmentation (apoptotic DNA ladder); type: cell-based, human; details: HepG2, 100 µM, 24 h, agarose gel
Procedure: HepG2 (1×10^5) cells were seeded in 24-well culture plates and were allowed to adhere overnight. […] The plates were re-incubated for another 24 h. DNA fragmentation was detected using ApoTarget Quick Apoptotic DNA Ladder Detection Kit (Invitrogen, Burlington, ON, Canada) according to the manufacturer’s protocol. The principle involves detecting the internucleosomal DNA fragments formed during apoptosis. Briefly, floating dead cells and trypsinized adherent cells were collected and centrifuged at 1,000 rpm for 10 min. After washing with diluted phosphate buffered saline, the cells were lysed with 35 µL TE lysis buffer (a kit component). To the lysate, 5 µL of Enzyme A (a kit component) was added and incubated at 37°C for 10 min. Afterwards, 5 µL of Enzyme B (a kit component) was added, gently mixed and incubated at 50°C for 30 min. The DNA was precipitated with the ammonium acetate and absolute ethanol at −20°C. After centrifugation (10 min at 12,000 rpm) and air drying, the DNA pellet was dissolved in 30 µL of DNA suspension buffer. For detecting the DNA ladder, the extracted DNA samples were run on a 1.2% agarose gel containing 0.5 µg/mL gel red in Tris-Borate-EDTA (TBE) buffer. After electrophoresis, the gel image was captured using Gel Doc 100 system (Bio-Rad, Mississauga, ON, Canada).

[5] = system: caspase 3 activity of HepG2 cells; assay: Caspase-3 colorimetric activity assay; type: cell-based, human; details: HepG2, 100 µM, 24 h, compared to DMSO control
Procedure: The activity of caspase 3 enzyme was measured using caspase 3 colorimetric assay kit purchased from Sigma-Aldrich. […] Cells were lysed and the protein content of cell lysate was quantified by the BCA protein assay (Thermo Fisher Scientific Inc., Ottawa, ON, Canada). Caspase-3 activity was measured in the 200 µg of cell lysate using the caspase-specific peptide substrate, DEVD (Asp-Glu-Val-Asp), conjugated to reporter p-nitroanaline (ρ-NA) molecules.

HepG2 cells [6] = assay: Mitochondrial membrane potential (JC-1); type: cell-based, human; details: HepG2, 100 µM, 24 h
Procedure: HepG2 cells were seeded in a black walled clear bottom 96-well sterile flat bottom tissue culture plates (BD Biosciences, USA) at a density of 5×10^4 cells/well (100 µL) and incubated in a CO2 incubator for 24 h at 37°C. […] The staining solution JC-1 was prepared with PBS and 5 µM was added to each well. The cells were further incubated in a CO2 incubator at 37°C for 1 h. After washing the plate with PBS twice, the fluorescence was measured using a Fluostar Optima microplate reader (BMG Labtech) at 535 nm for JC-1 monomers and at 590 nm for JC-1 aggregates.

human DNA topo IIα = molecular target: T1, human DNA topo IIα (Homo sapiens, UniProt P11388); assay: Topoisomerase IIα catalytic activity (pHOT1 DNA relaxation); type: biochemical; details: 100 µM, 4 units enzyme, 37°C 30 min
T1 construct: purchased TopoGEN, Inc., Columbus, OH, USA
T1 sequence (P11388 whole entry): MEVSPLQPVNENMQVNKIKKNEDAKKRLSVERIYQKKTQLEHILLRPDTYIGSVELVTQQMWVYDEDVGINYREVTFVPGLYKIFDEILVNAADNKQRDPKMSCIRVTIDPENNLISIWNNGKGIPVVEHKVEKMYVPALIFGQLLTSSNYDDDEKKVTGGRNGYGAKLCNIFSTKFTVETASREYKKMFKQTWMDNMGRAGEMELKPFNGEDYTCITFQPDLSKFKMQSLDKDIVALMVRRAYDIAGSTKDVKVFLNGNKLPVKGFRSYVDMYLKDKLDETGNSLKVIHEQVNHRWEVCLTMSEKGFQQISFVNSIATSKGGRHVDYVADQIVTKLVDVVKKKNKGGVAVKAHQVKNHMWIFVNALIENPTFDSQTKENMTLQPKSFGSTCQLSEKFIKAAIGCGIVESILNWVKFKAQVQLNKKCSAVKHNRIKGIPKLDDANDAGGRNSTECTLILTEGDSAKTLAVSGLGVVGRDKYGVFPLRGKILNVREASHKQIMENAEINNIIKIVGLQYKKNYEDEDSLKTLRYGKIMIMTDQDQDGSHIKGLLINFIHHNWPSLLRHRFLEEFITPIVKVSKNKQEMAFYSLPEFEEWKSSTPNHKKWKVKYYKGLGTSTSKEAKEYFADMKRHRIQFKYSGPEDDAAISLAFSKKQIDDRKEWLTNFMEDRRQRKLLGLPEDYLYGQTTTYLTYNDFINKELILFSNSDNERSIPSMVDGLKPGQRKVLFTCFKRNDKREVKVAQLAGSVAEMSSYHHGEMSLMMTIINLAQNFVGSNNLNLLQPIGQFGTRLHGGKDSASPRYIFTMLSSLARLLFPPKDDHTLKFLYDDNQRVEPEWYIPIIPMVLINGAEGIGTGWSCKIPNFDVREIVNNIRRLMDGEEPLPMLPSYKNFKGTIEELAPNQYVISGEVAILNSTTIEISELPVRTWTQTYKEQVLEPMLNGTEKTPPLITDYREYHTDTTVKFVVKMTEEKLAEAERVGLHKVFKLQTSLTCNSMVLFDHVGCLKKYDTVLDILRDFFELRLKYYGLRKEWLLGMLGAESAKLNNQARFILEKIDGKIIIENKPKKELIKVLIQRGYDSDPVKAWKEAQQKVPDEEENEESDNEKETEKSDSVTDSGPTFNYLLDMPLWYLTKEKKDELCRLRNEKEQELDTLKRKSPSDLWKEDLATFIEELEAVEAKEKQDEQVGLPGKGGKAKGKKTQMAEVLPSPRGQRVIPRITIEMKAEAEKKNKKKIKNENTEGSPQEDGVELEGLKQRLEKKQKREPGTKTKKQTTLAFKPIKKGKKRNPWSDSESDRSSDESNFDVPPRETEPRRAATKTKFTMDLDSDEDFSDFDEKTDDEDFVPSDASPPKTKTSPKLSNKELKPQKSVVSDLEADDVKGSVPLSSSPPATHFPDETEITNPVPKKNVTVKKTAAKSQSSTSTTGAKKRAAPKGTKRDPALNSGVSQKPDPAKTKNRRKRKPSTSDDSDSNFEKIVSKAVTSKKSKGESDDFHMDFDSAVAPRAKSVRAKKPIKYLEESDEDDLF
Procedure: The topo IIα catalytic activity was monitored via electrophoresis using topoisomerase II drug screening kit (TopoGEN, Inc., Columbus, OH, USA). Briefly, 20 µL of reaction mixtures contained 0.5 M Tris-HCl, pH 8.0, 1.5 M NaCl, 100 mM MgCl2, 20 mM ATP, 300 µg BSA/mL and 5 mM dithiothreitol. Supercoiled DNA (pHOT1 DNA), supercoiled provided in the kit was determined to be ideal for this assay because it is small and easy to handle and has a large number of topo IIα recognition elements. […] The reaction was terminated by adding 2 µL of 10% sodium dodecyl sulfate (SDS) followed by digestion with 2 µL of proteinase K (50 µg/mL) at 37°C for 15 min to degrade enzyme. After adding 2 µL of loading buffer (0.25% bromophenol blue and 50% glycerol) was added to the mixture, samples were loaded onto 1% agarose gel. Electrophoresis was conducted at 66 V (2 V/cm) for 5 h in TBE buffer using Biorad Electrophoretic Gel System (Bio-Rad, Hercules, CA, USA). Supercoiled DNA (pHOT1 DNA) and relaxed DNA were included in the electrophoresis run as markers for DNA topology. Gels were then stained in 0.5 µg/mL gel red in TBE for 30 min and destained for 15 min in distilled water prior to digital image acquisition using Gel Doc 100 system (Bio-Rad, Hercules, CA, USA).
One unit of topoisomerase II activity was defined as the minimum amount of enzyme required to achieve complete relaxation of […] superhelical pHOT1 DNA in 30 min at 37°C. […] The percent of inhibition was calculated by the following formula: [drawing 1] Where Scontrol is the percent of supercoiled DNA in the control lane (without enzyme and test compounds), S0 is the percent of supercoiled DNA in the lane without test compounds and S is the percent of supercoiled DNA in the lane with test compounds and enzyme.

CCCCCCCCCCCCCCCCCC(=O)OC[C@H]1O[C@@H](Oc2cc(O)cc(O)c2C(=O)CCc2ccc(O)cc2)[C@H](O)[C@@H](O)[C@@H]1O [Pz-Stearic acid ester, stearic acid ester of Pz]
viability of rat hepatocytes (rat hepatocytes (RTCP10)): about 50%

CNC(=O)c1cc(Oc2ccc(NC(=O)Nc3ccc(Cl)c(C(F)(F)F)c3)cc2)ccn1 [Sorafenib, sorafenib]
EC50 (HepG2 cells [1]; HepG2, 3 h): 67.5 ± 5.2 µM | EC50 (HepG2 cells [1]; HepG2, 6 h): 46.7 ± 3.5 µM | EC50 (HepG2 cells [1]; HepG2, 12 h): 17.3 ± 0.8 µM | EC50 (HepG2 cells [1]; HepG2, 18 h): 13.4 ± 0.9 µM | EC50 (HepG2 cells [1]; HepG2, 24 h): 10.7 ± 0.5 µM | EC50 [2]: > 100 µM | apoptotic morphological changes (HepG2 cells [3]): morphological changes which are characteristic to apoptosis | internucleosomal DNA fragmentation (HepG2 cells [4]): clear DNA ladders | caspase 3 activity [5]: significant (P<0.001) increase | mitochondrial membrane potential (HepG2 cells [6]): significant (P<0.05) reduction | catalytic activity of human DNA topo IIα (pHOT DNA relaxation) (human DNA topo IIα): inhibited catalytic activity
